The results in this text go back to patent publication US20250304594A1, “METHYL (R)-2-(FLUOROMETHYL)-5-OXO-4-PHENYL-4,5,6,7-TETRAHYDRO-1H-CYCLOPENTA[B]PYRIDINE-3-CARBOXYLATE AND METHYL (R)-2-(FLUOROMETHYL)-5-OXO-4-PHENYL-1,4,5,7-TETRAHYDROFURO[3,4-B]PYRIDINE-3-CARBOXYLATE AS Cav1,2 ACTIVATORS” (Novartis AG, priority 2020, published 2025).

In one data set the target is T1, human CaV1.2 (Homo sapiens, UniProt Q13936).
T1 construct: expressed in transfected cells; host or cells: Flp-In 293 T-Rex (HEK293), monoclonal CaV1.2-HEK293(AUX) clone 2-19B; doxycycline-induced auxiliary subunits
T1 sequence (Q13936 1-2138 isoform Q13936-23): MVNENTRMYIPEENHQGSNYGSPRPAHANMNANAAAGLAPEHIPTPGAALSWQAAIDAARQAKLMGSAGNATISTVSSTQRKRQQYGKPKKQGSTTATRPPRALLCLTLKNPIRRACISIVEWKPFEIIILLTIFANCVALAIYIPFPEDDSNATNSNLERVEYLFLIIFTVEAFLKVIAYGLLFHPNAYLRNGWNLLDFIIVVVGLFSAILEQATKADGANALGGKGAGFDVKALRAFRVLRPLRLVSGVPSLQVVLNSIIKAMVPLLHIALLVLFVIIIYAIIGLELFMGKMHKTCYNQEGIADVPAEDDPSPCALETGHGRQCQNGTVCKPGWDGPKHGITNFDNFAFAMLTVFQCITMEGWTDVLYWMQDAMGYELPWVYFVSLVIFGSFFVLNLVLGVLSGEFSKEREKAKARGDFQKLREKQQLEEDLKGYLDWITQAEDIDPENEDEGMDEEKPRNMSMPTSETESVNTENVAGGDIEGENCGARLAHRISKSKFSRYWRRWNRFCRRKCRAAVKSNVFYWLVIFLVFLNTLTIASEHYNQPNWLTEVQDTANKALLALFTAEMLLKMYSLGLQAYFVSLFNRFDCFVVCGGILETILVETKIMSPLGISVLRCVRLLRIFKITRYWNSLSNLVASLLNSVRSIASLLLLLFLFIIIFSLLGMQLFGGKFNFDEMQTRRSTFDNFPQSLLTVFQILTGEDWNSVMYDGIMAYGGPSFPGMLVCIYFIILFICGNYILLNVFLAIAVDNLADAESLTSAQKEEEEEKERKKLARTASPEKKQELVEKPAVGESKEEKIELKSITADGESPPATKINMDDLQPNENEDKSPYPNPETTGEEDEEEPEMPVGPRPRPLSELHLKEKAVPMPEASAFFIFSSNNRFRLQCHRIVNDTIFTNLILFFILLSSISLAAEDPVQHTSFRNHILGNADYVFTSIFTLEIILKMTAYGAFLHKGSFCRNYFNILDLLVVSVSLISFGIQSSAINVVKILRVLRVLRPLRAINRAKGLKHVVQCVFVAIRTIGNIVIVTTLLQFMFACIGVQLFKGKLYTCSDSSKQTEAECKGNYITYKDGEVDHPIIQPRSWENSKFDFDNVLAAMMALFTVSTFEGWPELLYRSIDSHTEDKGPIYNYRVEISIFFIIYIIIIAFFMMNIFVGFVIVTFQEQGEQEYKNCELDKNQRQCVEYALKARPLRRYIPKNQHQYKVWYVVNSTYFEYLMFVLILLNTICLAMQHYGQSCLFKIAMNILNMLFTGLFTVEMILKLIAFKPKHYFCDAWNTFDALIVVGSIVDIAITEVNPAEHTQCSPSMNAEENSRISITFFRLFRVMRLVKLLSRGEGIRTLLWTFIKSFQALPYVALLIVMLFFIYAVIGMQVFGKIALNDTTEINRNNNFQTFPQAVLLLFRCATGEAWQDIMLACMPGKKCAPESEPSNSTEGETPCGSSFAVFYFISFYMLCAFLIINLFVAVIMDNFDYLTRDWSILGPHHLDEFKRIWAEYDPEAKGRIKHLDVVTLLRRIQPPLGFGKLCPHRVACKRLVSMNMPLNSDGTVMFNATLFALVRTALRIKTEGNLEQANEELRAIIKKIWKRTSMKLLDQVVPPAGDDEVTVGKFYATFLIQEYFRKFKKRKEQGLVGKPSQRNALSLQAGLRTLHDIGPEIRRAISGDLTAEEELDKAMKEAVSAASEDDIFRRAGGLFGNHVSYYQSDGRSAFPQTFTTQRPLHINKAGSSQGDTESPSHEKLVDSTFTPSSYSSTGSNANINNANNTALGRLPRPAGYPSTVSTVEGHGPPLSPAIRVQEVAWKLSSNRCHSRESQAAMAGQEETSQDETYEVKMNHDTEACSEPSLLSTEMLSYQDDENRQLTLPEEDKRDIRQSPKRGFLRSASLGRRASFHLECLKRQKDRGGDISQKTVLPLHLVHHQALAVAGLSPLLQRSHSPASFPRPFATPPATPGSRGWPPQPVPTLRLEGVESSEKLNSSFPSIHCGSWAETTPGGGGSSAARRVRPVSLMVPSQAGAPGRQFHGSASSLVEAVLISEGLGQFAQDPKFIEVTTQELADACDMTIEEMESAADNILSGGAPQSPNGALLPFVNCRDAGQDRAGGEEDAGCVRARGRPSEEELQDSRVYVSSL
T1 sequence (Q9NY47 19-1001 partner limits assumed): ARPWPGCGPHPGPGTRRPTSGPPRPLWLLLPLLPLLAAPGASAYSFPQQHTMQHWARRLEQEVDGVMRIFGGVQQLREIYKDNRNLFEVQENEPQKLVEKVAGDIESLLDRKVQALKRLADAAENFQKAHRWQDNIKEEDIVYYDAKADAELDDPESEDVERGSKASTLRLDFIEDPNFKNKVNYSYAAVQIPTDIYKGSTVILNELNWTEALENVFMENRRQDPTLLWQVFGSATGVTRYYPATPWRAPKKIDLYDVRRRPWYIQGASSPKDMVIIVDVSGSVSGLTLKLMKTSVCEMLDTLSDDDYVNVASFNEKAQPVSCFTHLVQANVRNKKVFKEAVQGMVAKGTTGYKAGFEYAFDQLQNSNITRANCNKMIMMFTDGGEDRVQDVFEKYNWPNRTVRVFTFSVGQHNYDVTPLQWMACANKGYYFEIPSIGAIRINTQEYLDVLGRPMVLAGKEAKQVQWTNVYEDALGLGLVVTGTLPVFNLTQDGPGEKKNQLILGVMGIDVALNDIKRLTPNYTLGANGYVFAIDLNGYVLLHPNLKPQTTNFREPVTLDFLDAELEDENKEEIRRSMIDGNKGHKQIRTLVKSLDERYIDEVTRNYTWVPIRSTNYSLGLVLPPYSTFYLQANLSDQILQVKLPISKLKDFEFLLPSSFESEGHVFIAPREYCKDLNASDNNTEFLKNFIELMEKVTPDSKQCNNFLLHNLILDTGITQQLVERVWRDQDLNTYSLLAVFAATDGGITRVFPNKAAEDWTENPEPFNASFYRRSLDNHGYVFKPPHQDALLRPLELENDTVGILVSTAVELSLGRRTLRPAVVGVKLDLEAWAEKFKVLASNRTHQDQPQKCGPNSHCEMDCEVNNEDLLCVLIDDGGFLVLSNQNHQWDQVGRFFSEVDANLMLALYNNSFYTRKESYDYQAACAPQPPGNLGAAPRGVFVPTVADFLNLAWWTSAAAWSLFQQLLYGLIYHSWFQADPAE
T1 sequence (Q9NY47 1002-1150 partner limits assumed): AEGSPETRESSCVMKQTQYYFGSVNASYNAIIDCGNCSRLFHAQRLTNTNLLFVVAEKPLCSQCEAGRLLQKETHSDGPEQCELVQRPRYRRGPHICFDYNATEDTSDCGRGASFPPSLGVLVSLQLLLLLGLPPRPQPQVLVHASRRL
T1 sequence (Q08289 whole entry partner): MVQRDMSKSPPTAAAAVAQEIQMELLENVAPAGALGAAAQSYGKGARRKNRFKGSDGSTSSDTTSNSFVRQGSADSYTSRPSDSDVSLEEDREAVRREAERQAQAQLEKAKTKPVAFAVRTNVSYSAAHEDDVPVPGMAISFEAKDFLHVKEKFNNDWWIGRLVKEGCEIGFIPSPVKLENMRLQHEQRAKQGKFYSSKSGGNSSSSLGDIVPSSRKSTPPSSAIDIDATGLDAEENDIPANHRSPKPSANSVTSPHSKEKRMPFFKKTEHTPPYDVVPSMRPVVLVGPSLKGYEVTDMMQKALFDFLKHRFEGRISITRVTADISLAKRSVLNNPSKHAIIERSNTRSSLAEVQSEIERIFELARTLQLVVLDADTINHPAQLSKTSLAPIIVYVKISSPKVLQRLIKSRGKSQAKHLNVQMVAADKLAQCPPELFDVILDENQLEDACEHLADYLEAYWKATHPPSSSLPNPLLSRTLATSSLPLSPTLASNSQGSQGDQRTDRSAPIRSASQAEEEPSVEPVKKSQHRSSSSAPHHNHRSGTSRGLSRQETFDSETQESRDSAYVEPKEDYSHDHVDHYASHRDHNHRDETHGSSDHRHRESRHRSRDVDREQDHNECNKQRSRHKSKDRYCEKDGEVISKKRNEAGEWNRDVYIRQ
The data set can be described thus: Sophion QPatch dose-response assay, whole-cell voltage clamp of barium currents in CaV1.2-HEK293(AUX) cells. The settings on record: Table 9, n = 1 unless * n = 2; for EC50: 6-point dose response, 10 determinations per concentration; for Qpatch Emax: maximal fold change of peak inward current. In kind it is cell-based. The source says: The monoclonal CaV1.2-HEK293(AUX) cell line constitutively expresses human CaV1.2 alpha1C (α1C) subunit (CACNA1C) and has doxycycline-inducible expression of the alpha2delta (α2Δ2) auxiliary subunit (CACNA2D2) and beta2 (02) auxiliary subunit (CACNB2). To generate the cell line, expression vectors pcDNA5.0/FRT-TO-CACNA2D2-FCS-P2A-CACNB2 and pCMV6-entry-CACNA1C were established via gene synthesis and cloning. Here, pcDNA5.0/FRT-TO plasmid is from Invitrogen, pCMV6-entry is from Origene, FCS stands for Furin Cleavage Site, P2A is a peptide self-cleavage sequence derived from porcine teschovirus-1, and FRT is the Flippase recognition target site. Next, parental line Flp-In™ 293 T-Rex (Invitrogen) was transfected with pcDNA5.0/FRT-TO-CACNA2D2-FCS-P2A-CACNB2 and Flippase vector pOG44 (Invitrogen) to establish targeted integration of the CACNA2D2-FCS-P2A-CACNB2 expression cassette into the pre-engineered FRT site in Flp-In™ 293 T-Rex. This intermediate cell line was then transfected with pCMV6-entry-CACNA1C to establish stable CACNA1C expression. Clonal isolation was achieved under Neomycin selection.
Electrophysiological Characterization of CaV1.2 Activators Using CaV1.2-HEK293(AUX) Cell Line and QPatch
24 hours prior an electrophysiology experiment, doxycycline (1 μg/ml) was added to the growth medium (Table 6), and 25 μM of verapamil was co-applied to prevent calcium influx triggered cell death. Cell confluency should reach 70%-80% right before the experiment. To harvest cells (from a T175 cm^2 flask as an example), growth media were removed completely, and the cells were rinsed with 10 mL of D-PBS. D-PBS was aspirated, and 10 mL of Detachin (Genlantis) was added and the plate was placed in a 37° C. incubator for 10 minutes. Detached cells were placed into a 15 mL conical tube and spun at 1000 rpm for 2 minutes. Supernatant was removed, and cells were re-suspended in QPatch complete media (Table 7) to desired cell density of 1.5-3 million cells per QPatch run. Each experimental run uses 1.5 mL of cells.
The cells suspension was taken to the Sophion QPatch platform that uses whole-cell voltage clamp to measure barium currents conducted through CaV1.2 on single-hole QPlates. Extracellular and intracellular patch clamp solutions are described in Tables 7 and 8, respectively. A dose-response assay protocol was used to determine the maximal fold change of peak inward current (Emax) and potency (EC50) of each compound. The protocol had eight liquid periods. The first liquid period was to stabilize current amplitude, which was monitored using repetitive 200-ms voltage pulses stepping from −80 mV to 0 mV. The second liquid period was to determine baseline current amplitude in the presence of vehicle control, using a single 20-ms voltage pulse stepping from −80 mV to 0 mV. The third through eighth liquid periods were used to ascertain a 6-dose response to compound treatments, also using single 20-ms voltage pulses stepping from −80 mV to 0 mV. The EC50 was generated using the following equation Iconcentration=Ibase+(Ifull−Ibase)*c^n/(XC50^n+c^n), where c is the concentration and n is the Hill coefficient constant. Ifull is the maximal current achievable, and Ibase is 0. A channel biophysics assay protocol was used to determine channel gating properties including current-voltage relationship (IV curves), half-way channel activation voltage (V1/2), rate of channel inactivation (tau), and amplitude of tail current. Among these, V1/2 was derived from fitting equation G(V)=Gvmin+(Gvmax−Gvmin)/(1+exp(−(V−V½)/Vslope)), where G stands for conductance, Gvmin equals 0, Gvmax is the maximal conductance, and Vslope is a slope factor. G(V) was pre-calculated from equation G(V)=I(V)/(V−0.06), for each experimentally applied depolarization potential (V) and the corresponding current amplitude (I(V)), and 0.06 in the equation was the experimentally determined reversal potential in volts. The protocol had four liquid periods.
In general terms: The patch-clamp technique gives a direct electrical read-out from membranes.

Data set [1] is described as follows: Compound exposure in wild-type mice (brain and blood levels). In kind it is in vivo, C57BL/6J male mice. To be noted: Table 9, mice, i.p., one hour after administration; for Kp at 1 h: male, C57BL/6J, mouse, brain (cerebellum) / blood, ip, read-out: Brain:blood ratio. The procedure:
Compound administration and brain tissue collection. Wild-type C57BL/6J male mice were obtained from Jackson laboratories (Bar Harbor, ME). The acute, single-dose effects of CaV1.2 activators of the present disclosure were evaluated in male eight-week old mice (n=6 mice per compound). Each compound was dissolved in 10% PEG300, 10% Solutol, 10% Cremophore EL, and 70% Phosphate Buffered Saline and administered intraperitoneal (i.p.) at a concentration of 1 mg/kg up to 30 mg/kg depending on the compound. Animals were euthanized one hour after compound administration via exsanguination under deep anesthesia. Blood was collected in EDTA tubes for downstream analysis of drug levels. Brains were rapidly removed from the skull, and the cerebral cortex and cerebellum were regionally dissected. Cerebellar samples were snap frozen in liquid nitrogen to assess compound exposure. Cortical samples for cFos assessment were placed in 500 μl of RNAlater solution (ThermoFisher) to preserve the integrity of RNA in the sample. Samples remained in RNAlater for at least 24 hours at 4° C. before moving to −80° C. for storage before processing.
Quantification of compound exposure. Cerebellar tissue samples were homogenized in 4 ml of 20% acetonitrile and 80% Phosphate buffered saline for every 1 g of tissue (5× dilution). Tissue was homogenized using either of the following three methods: hand held probe system, TissueLyser system with 5 mm steel bead at a frequency of 30 s^−1 for 4 min, or OMNI Bead Ruptor Elite homogenizer for 30 seconds to 1 minute depending on tissue type. Tissue samples were added to a 96-well plate (12.5 uL sample) and processed for quantification by mass spectrometry.

Molecules are shown by their SMILES.

The term EC50 denotes the concentration at which the effect is half-maximal. High values mean a need for much substance, low ones an effect from little substance. Consider `COC(=O)C1=C(CF)NC2=C(C(=O)CC2)[C@H]1c1cccc(F)c1C1CC1` (single isomer, unassigned) [Example 28], for which, on human CaV1.2, the midpoint of the response, the EC50, lay at 0.06 µM and the “Qpatch Emax” value is 1.9. Also, in data set [1], the Kp at 1 h was 1.1.
Taken in the same sequence, the figures for `COC(=O)C1=C(CF)NC2=C(C(=O)OC2)[C@H]1c1cc(F)ccc1C(F)(F)F` (single isomer, unassigned) [Example 23] were 0.12 µM, 3.5 and 1.2.
Taken in the same sequence, the figures for `COC(=O)C1=C(CF)NC2=C(C(=O)OC2)[C@H]1c1cccc(F)c1[C@@H](C)F` (single isomer, unassigned) [Example 8] were 0.02 µM, 2.0 and 3.5.
Taken in the same sequence, the figures for `COC(=O)C1=C(CF)NC2=C(C(=O)OC2)[C@H]1c1cc(F)cc(F)c1C1CC1` (single isomer, unassigned) [Example 13] were 0.02 µM, 1.6* and 3.5.
Consider `COC(=O)C1=C(CF)NC2=C(C(=O)OC2)[C@H]1c1cc(F)cc(F)c1C(F)(F)F` (single isomer, unassigned) [Example 10], for which, on human CaV1.2, the EC50 is 0.04 µM and the “Qpatch Emax” value worked out at 1.8. For the same compound, in data set [1], the Kp at 1 h was 0.9.
With `COC(=O)C1=C(CF)NC2=C(C(=O)OC2)[C@H]1c1cccc(F)c1[C@H](F)CF` (single isomer, unassigned) [Example 6], at human CaV1.2, a half-maximal effect (EC50) was put at 0.017 µM and the “Qpatch Emax” value was 1.4*. The Kp at 1 h in data set [1] amounted to 1.5.
Regarding `COC(=O)C1=C(CF)NC2=C(C(=O)OC2)[C@H]1c1cccc(F)c1CC(F)F` (single isomer, unassigned) [Example 11], at human CaV1.2, a half-maximal response (EC50) required 0.07 µM and the “Qpatch Emax” value is recorded as 2.0. For the same compound, the Kp at 1 h in data set [1] is 1.1.
`COC(=O)C1=C(CF)NC2=C(C(=O)OC2)[C@H]1c1cccc(F)c1C1CC1` (single isomer, unassigned) [Example 2]: on human CaV1.2, a half-maximal response (EC50) required 0.012 µM and the “Qpatch Emax” value turned out to be 2.3. For the same compound, in data set [1], the Kp at 1 h was 1.5.
Turning to `COC(=O)C1=C(CF)NC2=C(C(=O)OC2)[C@H]1c1cc(F)cc(F)c1[C@H]1CC1(F)F` (single isomer, unassigned) [Example 3, Methyl (R)-4-(2-((R or S)-2,2-difluorocyclopropyl)-3,5-difluorophenyl)-2-(fluoromethyl)-5-oxo-1,4,5,7-tetrahydrofuro[3,4-b]pyridine-3-carboxylate], on human CaV1.2, the EC50 turned out to be 0.05 µM and the “Qpatch Emax” value amounted to 1.6. Further, the Kp at 1 h in data set [1] was 2.8.
For the compound `COC(=O)C1=C(CF)NC2=C(C(=O)OC2)[C@H]1c1cccc(F)c1C(F)F` (single isomer, unassigned) [Example 15], on human CaV1.2, the EC50 amounted to 0.29 µM and the “Qpatch Emax” value stood at 1.3. The Kp at 1 h in data set [1] turned out to be 1.7.
Consider `COC(=O)C1=C(CF)NC2=C(C(=O)OC2)[C@H]1c1cc(F)cc(F)c1[C@H]1CC1(F)F` (single isomer, unassigned) [Example 4, Methyl (R)-4-(2-((R or S)-2,2-difluorocyclopropyl)-3,5-difluorophenyl)-2-(fluoromethyl)-5-oxo-1,4,5,7-tetrahydrofuro[3,4-b]pyridine-3-carboxylate], for which, at human CaV1.2, the EC50 was 0.02 µM and the “Qpatch Emax” value worked out at 1.9. Besides, in data set [1], the “Brain:blood ratio” value was 1.4.
As to `COC(=O)C1=C(CF)NC2=C(C(=O)OC2)[C@H]1c1cc(F)cc(F)c1C(F)F` (single isomer, unassigned) [Example 18], at human CaV1.2, the midpoint of the response, the EC50, lay at 0.21 µM and the “Qpatch Emax” value is reported as 1.8. In addition, the Kp at 1 h in data set [1] was determined as 1.
Taken in the same sequence, the figures for `COC(=O)C1=C(CF)NC2=C(C(=O)OC2)[C@H]1c1ccccc1OC(F)F` (single isomer, unassigned) [Example 9] were 0.1 µM, 1.5 and 1.5.
Taken in the same sequence, the figures for `COC(=O)C1=C(CF)NC2=C(C(=O)OC2)[C@H]1c1cccc(F)c1[C@H]1CC1(F)F` (single isomer, unassigned) [Example 1, methyl (R)-4-(2-((R or S)-2,2-difluorocyclopropyl)-3-fluorophenyl)-2-(fluoromethyl)-5-oxo-1,4,5,7-tetrahydrofuro[3,4-b]pyridine-3-carboxylate] were 0.024 µM, 1.9 and 2.9.
Regarding `COC(=O)C1=C(CF)NC2=C(C(=O)OC2)[C@H]1c1cc(F)cc(F)c1[C@H](F)CF` (single isomer, unassigned) [Example 16, methyl (R)-4-(2-((R or S)-1,2-difluoroethyl)-3,5-difluorophenyl)-2-(fluoromethyl)-5-oxo-1,4,5,7-tetrahydrofuro[3,4-b]pyridine-3-carboxylate], at human CaV1.2, the EC50 was found to be 0.01 µM and the “Qpatch Emax” value is reported as 1.5. For the same compound, the Kp at 1 h in data set [1] was determined as 3.2.
In the case of `COC(=O)C1=C(CF)NC2=C(C(=O)CC2)[C@H]1c1cccc(F)c1[C@@H](F)CF` (single isomer, unassigned) [Example 7, methyl (R)-4-(2-((R or S)-1,2-difluoroethyl)-3-fluorophenyl)-2-(fluoromethyl)-5-oxo-4,5,6,7-tetrahydro-1H-cyclopenta[b]pyridine-3-carboxylate], on human CaV1.2, the midpoint of the response, the EC50, lay at 0.03 µM and the “Qpatch Emax” value was 1.8.
For `COC(=O)C1=C(CF)NC2=C(C(=O)OC2)[C@H]1c1cc(F)cc(F)c1[C@H](C)F` (single isomer, unassigned) [Example 5, methyl (R)-4-(3,5-difluoro-2-((R or S)-1-fluoroethyl)phenyl)-2-(fluoromethyl)-5-oxo-1,4,5,7-tetrahydrofuro[3,4-b]pyridine-3-carboxylate], at human CaV1.2, a half-maximal response (EC50) required 0.02 µM and the “Qpatch Emax” value is 1.9. Further, the Kp at 1 h in data set [1] was 3.3.
Regarding `COC(=O)C1=C(CF)NC2=C(C(=O)OC2)[C@H]1c1cccc(F)c1C(F)(F)F` (single isomer, unassigned) [Example 17], on human CaV1.2, it took 0.12 µM to reach a half-maximal effect (EC50) and the “Qpatch Emax” value was 1.2. In data set [1], the Kp at 1 h is 2.1.
